Assay results from patent US8445678B2, “2-quinoxalinol salen compounds and uses thereof” (Auburn University, priority 2008, dated 2013).

Columns and labels:
[1] = Stability of ligands, imines, intermediates and catalysts (temperature, air, moisture, solvents); assay type: physicochemical; conditions: exposure to air
[2] = Catalytic oxidation of diphenylmethane into benzophenone; conditions: yields by flash column chromatography and mass calculation
Method: The conversion of diphenylmethane into benzophenone was selected to test the activity of catalyst salquCu 1 and to develop optimized conditions, Based on previous reports with salphCu, three equivalents of H2O2 in CH3CN as solvent with 1% by molar of the catalyst salquCu 1 was heated to reflux temperature for 18 hours. Under these conditions, the isolated yield of benzophenone was only 27%. Six experimental factors were considered to optimizing this reaction: oxidant (FIG. 7), catalyst ratio (FIG. 8), reaction time (FIG. 9), oxidant ratio (FIG. 10), solvent, and types of catalyst (FIG. 11 and Table 10).
First, four oxidants were tested using CH3CN as solvent in each case, with 1% of catalyst 1 at reflux temperature for 18 hours. […] When tert-butylhydroperoxide in water was used as the oxidant, the yield of product, benzophenone, was around 80%. (FIG. 7) The use of tert-butylhydroperoxide in decane allows for a uniform or monophasic organic soluble catalyst system, and thus further improves the optimal yield. […]
The synthesis of the products depicted in Table 11 began with the combination of catalyst 1 (0.02 mmol, 15.2 mg) and 2.0 mmol of starting material (aryl methylene compound) dissolved in 2.0 mL acetonitrile with 1.0 mL tert-butylhydroperoxide decane solution (6.0 mmol). The reaction mixture was allowed to stir for 18 hours at 70° C. and monitored by TLC. […]

Nc1cc2ncc(O)nc2cc1N [Intermediate 1e]
stability in air / atmospheric conditions [1]: not stable and was found to decompose on exposure to air | Yield (%) of benzophenone, optimized conditions with different salquCu catalysts [2]: 90%
